# According to patent US6613757B1, “COMBINATION OF PROSTACYCLIN WITH AN ESTROGEN OR PROGESTIN FOR THE PREVENTION AND TREATMENT OF ATHEROSCLEROTIC VASCULAR DISEASE INCLUDING PREECLAMPSIA AND FOR THE TREATMENT OF HYPERTENSION, AND FOR HORMONE REPLACEMENT THERAPY” (Board of Regents, The University of Texas System, priority 1994, dated 2003):
# “Also recorded” adds a separate entry of the source.
# Key:
# cholesterol-fed rabbits = conditions: cited from earlier work
# [1] = tested on: preeclamptic rats (L-NAME); experiment: Blood pressure in L-NAME-induced preeclampsia model, pregnant and postpartum rats; type: in vivo, rat; conditions: for post-partum increase in blood pressure: R 5020 5 mg/animal/day; for blood pressure in the postpartum period: preeclamptic rats, L-NAME 25 mg/animal/day s.c. infusion plus cicaprost
# Method: These symptoms are related to the decrease in vascular resistance and placental perfusion. […] Preeclampsia was induced with an nitric oxide inhibitor L-NAME (25 mg/animal/day, s.c. infusion).
# [2] = in vivo; cited from earlier work
# [3] = tested on: preeclamptic rats (L-NAME); experiment: Fetal weight and fetal mortality in L-NAME-treated pregnant rats; type: in vivo, rat; conditions: iloprost plus L-NAME vs L-NAME-treated group
# Text: The unexpected results of the studies described below indicate that the response of blood vessels to prostacyclins and subsequent blood pressure lowering effect is controlled by progesterone. […] These symptoms are related to the decrease in vascular resistance and placental perfusion. […] Thus, the condition of pregnancy and the progestin treatment highly increase the responsiveness of blood vessels to exogenous prostacyclin. The increased response of blood vessels results in the lowering of the effective dose of prostacyclin analogs and subsequently in the reduction of side effects.
# (§1) FIG. 2 provides further evidence that progesterone can induce mechanisms which compensate the L-NAME-produced hypertension. This study was performed in male rats, showing pregnancy is not essential for this effect.
# [4] = intravenous use; cited from earlier work
# [5] = tested on: microvascular arteriolar endothelium; conditions: cited from earlier work
# L-NAME-treated male rats = experiment: L-NAME-induced hypertension in male rats; type: in vivo, rat
# Method: as §1
# placental blood vessels = conditions: in vitro; cited from earlier work
# [6] = tested on: women with severe preeclampsia; conditions: cited from earlier work
# humans = conditions: infusion; cited from earlier work
# [7] = tested on: cases of severe early-onset fetal growth retardation; conditions: 2 cases, intravenous, 4 ng/kg/min; cited from earlier work
# sheep = conditions: infusion; cited from earlier work
# pregnant guinea pigs = experiment: Inhibition of nitric oxide synthesis during pregnancy in guinea pigs; type: in vivo, guinea pig; conditions: unreported studies
# Text: There is also evidence that prostacyclin production is decreased in preeclampsia. In a normal pregnancy there is an approximately 5-10-fold increase in prostacyclin production compared to the non-pregnant state (Goodman 1982, Walsh 1985, Fitzgerald 1,987). In contrast, there is a decreased production of prostacyclin in maternal, placental and umbilical cord vessels and in placental cotyledons (Remuzzi 1980, […] 1984, Walsh 1985) in preeclampsia. An imbalance in the ratio of thromboxane A2 to prostacyclin in preeclampsia has been proposed as a major pathological mechanism in preeclampsia (Walsh 1988, Fitzgerald 1987, Friedman 1988). Other experimental studies (unreported) in pregnant rats and guinea pigs indicate that nitric oxide deficiency is the primary event in preeclampsia.
compound,measurement,setting,value
CCC#CC[C@H](C)[C@H](O)C#C[C@@H]1[C@H]2C/C(=C/COCC(=O)O)C[C@H]2C[C@H]1O [cicaprost],aortic atheromatous plaque formation,"cholesterol-fed rabbits; oral, cholesterol-fed rabbits",reduced aortic atheromatous plaque formation
same,hypercholesterolemia-induced impairment of endothelium-dependent relaxation,"cholesterol-fed rabbits; oral, cholesterol-fed rabbits",partially prevented hypercholesterolemia-induced impairment of endothelium-dependent relaxation
same,hypercholesterolemia-induced impairment of coronary vasodilatation,"cholesterol-fed rabbits; oral, rabbits",beneficial effect on the hypercholesterolemia-induced impairment of coronary vasodilatation
same,hypercholesterolemia-induced platelet and neutrophil hyperactivity,cholesterol-fed rabbits; rabbits,reduced hypercholesterolemia-induced platelet and neutrophil hyperactivity
same,blood pressure during pregnancy (prepartum),"[1]; cicaprost plus L-NAME, progesterone levels high, FIG. 1",greater in late pregnancy; also recorded: a fall in blood pressure
same,blood pressure postpartum,"[1]; cicaprost plus L-NAME, progesterone levels low, FIG. 1",rapid increase in blood pressure; also recorded: an increase
same,bioavailability,[2],high bioavailability
same,duration of action,[2],prolonged duration of action
CC#CCC(C)[C@H](O)/C=C/[C@@H]1[C@H]2C/C(=C/CCCC(=O)O)C[C@H]2C[C@H]1O (stereo partly shown) [iloprost],L-NAME-induced fetal mortality,[3]; FIG. 5 lower panel,reduces the L-NAME-induced fetal mortality; also recorded: fetal mortality decreased
same,L-NAME-induced fetal growth retardation (fetal weight),[3]; FIG. 5 upper panel,partially reverses the L-NAME-induced fetal growth retardation; also recorded: fetal weight increased
same,L-NAME-induced hypertension during pregnancy,"[1]; iloprost plus L-NAME, progesterone levels high, FIG. 4",greater in late pregnancy; also recorded: fully reverses the L-NAME-induced hypertension
same,systemic blood pressure,[4],marked fall in systemic blood pressure
same,damage of microvascular arteriolar endothelium by cyclosporin,[5],protect microvascular arteriolar endothelium from damage by cyclosporin
"CCC(=O)[C@@]1(C)CC[C@H]2[C@@H]3CCC4=CC(=O)CCC4=C3CC[C@@]21C [R 5020, promegestone]",post-partum increase in blood pressure,"[1]; iloprost plus L-NAME, FIG. 4",dramatically decrease the post-partum increase in blood pressure
same,post-partum increase in blood pressure,"[1]; iloprost plus L-NAME, FIG. 4, listed as R5020",restores the efficacy of iloprost/cicaprost to lower blood pressure
same,blood pressure in the postpartum period,[1]; FIG. 1,lowers blood pressure; also recorded: restores the postpartum decrease in the efficacy of cicaprost to lower blood pressure
same,blood pressure in the postpartum period,"[1]; FIG. 1, listed as R5020",restores the efficacy of iloprost/cicaprost to lower blood pressure
same,L-NAME-induced hypertension,"L-NAME-treated male rats; male rats, 0.5 mg/animal/day s.c., FIG. 2",reduces the L-NAME-induced hypertension
CCCCC[C@H](O)/C=C/[C@@H]1[C@H]2C/C(=C/CCCC(=O)O)O[C@H]2C[C@H]1O [prostacyclin],relaxation of placental blood vessels,placental blood vessels,consistently relaxes placental blood vessels
same,babies survived,"[6]; 7 women, 4-8 ng/kg/min i.v.",4/7
same,fetal effects during treatment,"[6]; 7 women, 4-8 ng/kg/min i.v.",Fetal bradycardia was observed; also recorded: two fetuses died during prostacyclin infusion
same,blood pressure during prostacyclin infusion,"[6]; 7 women, 4-8 ng/kg/min, 5 h to 11 days",rapid decrease in blood pressure
same,uteroplacental blood flow,[6]; steal phenomenon,decreased uteroplacental blood flow
same,placental perfusion,humans,did not result in the increase in placental perfusion
same,duration of action,[2],short duration of action
same,outcome of attempt to promote fetal growth,[7],intrauterine death in each case
same,placental perfusion,sheep,did not result in the increase in placental perfusion; also recorded: a decrease of placental perfusion
same,systemic blood pressure,[4],marked fall in systemic blood pressure
COC(=O)[C@@H](N)CCCNC(=N)N[N+](=O)[O-] [L-NAME],"signs and symptoms of preeclampsia (hypertension, proteinuria, fetal growth retardation)",[1]; pregnant rats,"caused the classical symptoms hypertension, proteinuria and fetal growth retardation; also recorded: produces signs and symptoms of preeclampsia"
same,"classical symptoms hypertension, proteinuria and fetal growth retardation",pregnant guinea pigs,"caused the classical symptoms hypertension, proteinuria and fetal growth retardation"
CC(=O)[C@H]1CC[C@H]2[C@@H]3CCC4=CC(=O)CC[C@]4(C)[C@H]3CC[C@]12C [progesterone],blood pressure,L-NAME-treated male rats; L-NAME-treated male rats,partially lowers blood pressure
